Measurements taken from patent US8623879B2, “1-heterocyclyl-1,5-dihydro-pyrazolo[3,4-D] pyrimidin-4-one derivates and their use as PDE9A modulators” (Boehringer Ingelheim International GmbH, priority 2008, dated 2014).

Target: T1, human PDE9A2 (Homo sapiens, UniProt O76083)
T1 construct: made in house; host or cells: Sf9 insect cells (infected); crude lysate used as enzyme source
Test: PDE9A2 enzymatic activity assay (scintillation proximity assay, SPA)
Type: biochemical
Settings: for inhibition at 10 µM: read-out: % inhibition of PDE9A2 (at 10 micromolar concentration), 10 micromolar concentration; for inhibition at 10 µM / % inhibition of PDE9A2 (at 10 micromolar concentration): values above 100% adjusted to 100%; for IC50: reported only as range 1-100 or 101-1200 nanomolar, specific value lies within range, read-out: IC50 within range [nanomolar (nM)]

T1 sequence (O76083 1-533 isoform O76083-2): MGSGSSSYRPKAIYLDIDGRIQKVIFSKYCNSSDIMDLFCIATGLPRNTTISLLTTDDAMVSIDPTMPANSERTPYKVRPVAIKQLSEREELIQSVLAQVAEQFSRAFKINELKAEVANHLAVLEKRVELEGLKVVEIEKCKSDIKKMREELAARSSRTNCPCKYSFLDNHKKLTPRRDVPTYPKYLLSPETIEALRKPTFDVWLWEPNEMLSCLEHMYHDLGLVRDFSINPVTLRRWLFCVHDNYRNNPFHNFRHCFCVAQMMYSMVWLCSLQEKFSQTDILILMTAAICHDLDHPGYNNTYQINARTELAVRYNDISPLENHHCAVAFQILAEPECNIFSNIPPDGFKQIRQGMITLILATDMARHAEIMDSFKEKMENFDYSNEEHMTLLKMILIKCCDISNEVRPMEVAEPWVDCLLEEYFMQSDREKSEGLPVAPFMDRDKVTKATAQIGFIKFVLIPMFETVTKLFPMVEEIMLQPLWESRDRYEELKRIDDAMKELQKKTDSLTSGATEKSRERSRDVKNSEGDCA

Structure (SMILES): O=c1[nH]c(Cc2cccc(C(F)(F)F)c2)nc2c1cnn2C1CCCNC1 (racemic) [Example 205]
- inhibition at 10 µM: 100%
- IC50: 1 to 100 nM

Structure (SMILES): O=c1[nH]c(CC2CCCC2)nc2c1cnn2C1CCOC1 (racemic) [Example 69]
- inhibition at 10 µM: 99%
- IC50: 1 to 100 nM

Structure (SMILES): O=C1CC(n2ncc3c(=O)[nH]c(CC4CCCC4)nc32)CCO1 (stereo not drawn) [Example 233]
- inhibition at 10 µM: 100%
- IC50: 1 to 100 nM

Structure (SMILES): COC(=O)N1CCCC(n2ncc3c(=O)[nH]c(Cc4ccccc4)nc32)C1 (racemic) [Example 155]
- inhibition at 10 µM: 100%
- IC50: 1 to 100 nM

Structure (SMILES): CC1CC(n2ncc3c(=O)[nH]c(Cc4ccccc4C(F)(F)F)nc32)CCO1 (racemic) [Example 113]
- inhibition at 10 µM: 92%
- IC50: 101 to 1200 nM

Structure (SMILES): O=c1[nH]c(CC2CCC2)nc2c1cnn2C1CCOC1 (single isomer, unassigned) [Example 132-9]
- % inhibition of PDE9A2 (at 10 micromolar concentration): 95%
- IC50: 101 to 1200 nM

Structure (SMILES): COc1ccccc1Cc1nc2c(cnn2C2CCN(C)C2)c(=O)[nH]1 (racemic) [Example 212]
- inhibition at 10 µM: 92%
- IC50: 101 to 1200 nM

Structure (SMILES): CN1CCC(n2ncc3c(=O)[nH]c(Cc4ccccc4OC(F)(F)F)nc32)C1 (racemic) [Example 211]
- inhibition at 10 µM: 99%
- IC50: 1 to 100 nM

Structure (SMILES): CCC(Cc1nc2c(cnn2C2CCOCC2)c(=O)[nH]1)C(F)(F)F (racemic) [Example 48]
- inhibition at 10 µM: 96%
- IC50: 1 to 100 nM

Structure (SMILES): COc1ccccc1CCc1nc2c(cnn2C2CCOCC2)c(=O)[nH]1 [Example 40-3]
- inhibition at 10 µM: 100%
- IC50: 101 to 1200 nM

Structure (SMILES): O=C(Oc1ccc(F)cc1)N1CCCC(n2ncc3c(=O)[nH]c(CC4CCCC4)nc32)C1 (racemic) [Example 162]
- inhibition at 10 µM: 98%
- IC50: 1 to 100 nM

Structure (SMILES): O=c1[nH]c(CCC(F)(F)F)nc2c1cnn2C1CCOCC1 [Example 34]
- inhibition at 10 µM: 93%
- IC50: 101 to 1200 nM

Structure (SMILES): C=Cc1cc(OC)ccc1Cc1nc2c(cnn2C2CCOCC2)c(=O)[nH]1 [Example 230-4]
- inhibition at 10 µM: 98%
- IC50: 101 to 1200 nM

Structure (SMILES): O=c1[nH]c(Cc2cccc(C(F)(F)F)c2)nc2c1cnn2C1CCOC1 (racemic) [Example 85]
- inhibition at 10 µM: 99%
- IC50: 1 to 100 nM

Structure (SMILES): N#Cc1ccccc1Cc1nc2c(cnn2C2CCOC2)c(=O)[nH]1 (racemic) [Example 88]
- inhibition at 10 µM: 96%
- IC50: 1 to 100 nM

Structure (SMILES): CCC(Cc1nc2c(cnn2C2CCCN(C(C)=O)C2)c(=O)[nH]1)C(F)(F)F (mixture of isomers) [Example 173]
- inhibition at 10 µM: 86%
- IC50: 101 to 1200 nM

Structure (SMILES): CC(C)(C)OC(=O)N1CCCC(n2ncc3c(=O)[nH]c(Cc4cccc(C(F)(F)F)c4)nc32)C1 (racemic) [Example 22]
- inhibition at 10 µM: 98%
- IC50: 1 to 100 nM

Structure (SMILES): O=c1[nH]c(CC2CCOCC2)nc2c1cnn2C1CCOCC1 [Example 41]
- inhibition at 10 µM: 92%
- IC50: 101 to 1200 nM

Structure (SMILES): CC1CC(n2ncc3c(=O)[nH]c(Cc4ccccn4)nc32)CCO1 (racemic) [Example 118]
- % inhibition of PDE9A2 (at 10 micromolar concentration): 89%
- IC50: 101 to 1200 nM

Structure (SMILES): O=c1[nH]c(CCCC(F)(F)F)nc2c1cnn2C1CCOCC1 [Example 25]
- inhibition at 10 µM: 96%
- IC50: 1 to 100 nM

Structure (SMILES): CC(C)CCc1nc2c(cnn2C2CCOCC2)c(=O)[nH]1 [Example 3]
- inhibition at 10 µM: 99%
- IC50: 1 to 100 nM

Structure (SMILES): O=C(c1ccccc1)N1CCCC(n2ncc3c(=O)[nH]c(Cc4ccccc4)nc32)C1 (racemic) [Example 182]
- inhibition at 10 µM: 100%
- IC50: 1 to 100 nM

Structure (SMILES): CC(c1ccccc1)c1nc2c(cnn2C2CCOCC2)c(=O)[nH]1 (racemic) [Example 14]
- inhibition at 10 µM: 96%
- IC50: 101 to 1200 nM

Structure (SMILES): O=c1[nH]c(Cc2ccccc2OC2CCCC2)nc2c1cnn2C1CCOCC1 [Example 125]
- inhibition at 10 µM: 95%
- IC50: 1 to 100 nM

Structure (SMILES): CCC(CC)Cc1nc2c(cnn2C2CCOC(C)C2)c(=O)[nH]1 (racemic) [Example 119]
- inhibition at 10 µM: 95%
- IC50: 1 to 100 nM

Structure (SMILES): O=c1[nH]c(Cc2ccccc2O)nc2c1cnn2C1CCOCC1 [Example 28]
- inhibition at 10 µM: 98%
- IC50: 1 to 100 nM

Structure (SMILES): O=c1[nH]c(Cc2ccccc2C(F)(F)F)nc2c1cnn2C1CCOCC1 [Example 45]
- inhibition at 10 µM: 98%
- IC50: 1 to 100 nM

Structure (SMILES): CN1CCCC(n2ncc3c(=O)[nH]c(CC4CCCC4)nc32)C1 (racemic) [Example 208]
- inhibition at 10 µM: 100%
- IC50: 101 to 1200 nM

Structure (SMILES): CC(=O)N1CCC(n2ncc3c(=O)[nH]c(Cc4ccccc4OC(F)(F)F)nc32)C1 (racemic) [Example 164]
- inhibition at 10 µM: 98%
- IC50: 101 to 1200 nM

Structure (SMILES): O=c1[nH]c(Cc2ccccc2C(F)(F)F)nc2c1cnn2C1CCOC1 (racemic) [Example 86]
- inhibition at 10 µM: 95%
- IC50: 101 to 1200 nM

Structure (SMILES): O=c1[nH]c(Cc2ccccn2)nc2c1cnn2C1CCCCO1 (racemic) [Example 145]
- inhibition at 10 µM: 84%
- IC50: 101 to 1200 nM

Structure (SMILES): O=c1[nH]c(Cc2ccccc2OC(F)(F)F)nc2c1cnn2C1CCOC1 (racemic) [Example 70]
- inhibition at 10 µM: 99%
- IC50: 1 to 100 nM

Structure (SMILES): CCC(Cc1nc2c(cnn2C2CCOCC2)c(=O)[nH]1)C(F)(F)F (single isomer, unassigned) [Example 62]
- % inhibition of PDE9A2 (at 10 micromolar concentration): 95%
- IC50: 1 to 100 nM

Structure (SMILES): CC(Cc1nc2c(cnn2C2CCOC2)c(=O)[nH]1)C(F)(F)F (mixture of isomers) [Example 72]
- inhibition at 10 µM: 91%
- IC50: 101 to 1200 nM

Structure (SMILES): O=c1[nH]c(Cc2ccccc2OC(F)(F)F)nc2c1cnn2C1CCOCC1 [Example 138]
- inhibition at 10 µM: 100%
- IC50: 1 to 100 nM

Structure (SMILES): O=c1[nH]c(Cc2ccccc2)nc2c1cnn2C1CCNC1 (racemic) [Example 199]
- inhibition at 10 µM: 88%
- IC50: 101 to 1200 nM

Structure (SMILES): N#Cc1ccccc1Cc1nc2c(cnn2C2CCCOC2)c(=O)[nH]1 (racemic) [Example 126]
- inhibition at 10 µM: 98%
- IC50: 1 to 100 nM

Structure (SMILES): O=c1[nH]c(CC2CC2)nc2c1cnn2C1CCSCC1 [Example 40-5]
- inhibition at 10 µM: 98%
- IC50: 1 to 100 nM

Structure (SMILES): O=c1[nH]c(Cc2ccc(F)cc2)nc2c1cnn2C1CCCOC1 (racemic) [Example 101]
- inhibition at 10 µM: 98%
- IC50: 1 to 100 nM

Structure (SMILES): O=c1[nH]c(CC2CCCC2)nc2c1cnn2C1CCCCO1 (racemic) [Example 147]
- inhibition at 10 µM: 99%
- IC50: 1 to 100 nM

Structure (SMILES): CC1CC(n2ncc3c(=O)[nH]c(Cc4ccccn4)nc32)CCO1 (racemic) [Example 111]
- inhibition at 10 µM: 88%
- IC50: 101 to 1200 nM

Structure (SMILES): CCC(CC)Cc1nc2c(cnn2C2CCCOC2)c(=O)[nH]1 (racemic) [Example 130]
- inhibition at 10 µM: 99%
- IC50: 1 to 100 nM

Structure (SMILES): O=c1[nH]c(Cc2ccccc2Cl)nc2c1cnn2C1CCOCC1 [Example 4]
- inhibition at 10 µM: 98%
- IC50: 1 to 100 nM

Structure (SMILES): O=c1[nH]c(Cc2c(F)ccc(F)c2Cl)nc2c1cnn2C1CCOCC1 [Example 37]
- inhibition at 10 µM: 97%
- IC50: 1 to 100 nM

Structure (SMILES): Cc1ccccc1Cc1nc2c(cnn2C2CCOCC2)c(=O)[nH]1 [Example 2]
- inhibition at 10 µM: 99%
- IC50: 1 to 100 nM

Structure (SMILES): O=c1[nH]c(CC2CCC2)nc2c1cnn2C1CCCOC1 (racemic) [Example 96]
- inhibition at 10 µM: 99%
- IC50: 1 to 100 nM

Structure (SMILES): O=c1[nH]c(Cc2ccc(F)c(Cl)c2)nc2c1cnn2C1CCCOC1 (racemic) [Example 102]
- inhibition at 10 µM: 100%
- IC50: 1 to 100 nM

Structure (SMILES): O=c1[nH]c(C(F)c2ccccc2)nc2c1cnn2C1CCOCC1 (racemic) [Example 12]
- inhibition at 10 µM: 97%
- IC50: 1 to 100 nM
